Test system: BRAPP (Brachiaria platyphylla, broadleaf signalgrass)
Assay: Pre-emergence soil-applied mixtures, greenhouse
Type: in vivo, Brachiaria platyphylla (Groseb.) Nash
Text: Seeds or nutlets of the desired test plant species were planted in a soil matrix prepared by mixing a loam soil (32 percent silt, 23 percent clay, and 45 percent sand, with a pH of about 6.5 and an organic matter content of about 1.9 percent) and calcareous grit in an 80 to 20 ratio. The soil matrix was contained in plastic pots with a volume of 1 quart and a surface area of 83.6 square centimeters (cm^2).
Treatments consisted of the benzyl ester of 4-amino-3-chloro-5-fluoro-6-(4-chloro-2-fluoro-3-methoxy-phenyl)pyridine-2-carboxylic acid (compound A) formulated as an SC (suspension concentrate) and various herbicidal components alone and in combination. Forms of compound A were applied on an acid equivalent basis.
Other herbicidal components were applied on an acid equivalent or active ingredient basis and included the PSII-inhibiting herbicides, atrazine formulated as Atrazine® 90WDG, metribuzin formulated as Metribuzin 75DF, simazine formulated as Princep Caliber 90, tebuthiuron formulated as Spike 80DF, cyanazine (technical grade material), hexazinone (technical grade material), linuron (technical grade material), terbuthylazine (technical grade material), and diuron formulated as Diuron 4L.
Treatment requirements were calculated based upon the rates being tested, the concentration of active ingredient or acid equivalent in the formulation, and a 12 mL application volume at a rate of 187 L/ha.
For treatments comprised of formulated compounds, measured amounts of compounds were placed individually in 25 mL glass vials and diluted in a volume of 1.25% (v/v) Agri-Dex® crop oil concentrate (COC) to obtain 12× stock solutions. […] Application solutions were prepared by adding an appropriate amount of each stock solution (e.g., 1 mL) and diluted to the appropriate final concentrations with the addition of 10 mL of an aqueous mixture of 1.25% (v/v) COC so that the final spray solutions contained 1.25% (v/v) COC.
For treatments comprised of technical compounds, weighed amounts can be placed individually in 25 mL glass vials and dissolved in a volume of 97:3 (v/v) acetone/DMSO to obtain 12× stock solutions. […] Application solutions can be prepared by adding an appropriate amount of each stock solution (e.g., 1 mL) and diluted to the appropriate final concentrations with the addition of 10 mL of an aqueous mixture of 1.5% (v/v) COC so that the final spray solutions contain 1.25% (v/v) COC. When technical materials are used, the concentrated stock solutions can be added to the spray solutions so that the final acetone and DMSO concentrations of the application solutions are 16.2% and 0.5%, respectively.
For treatments comprised of formulated and technical compounds, weighed amounts of the technical materials can be placed individually in 25 mL glass vials and dissolved in a volume of 97:3 (v/v) acetone/DMSO to obtain 12× stock solutions, and measured amounts of the formulated compounds can be placed individually in 25 mL glass vials and diluted in a volume of 1.5% (v/v) COC or water to obtain 12× stock solutions. […] Application solutions can be prepared by adding an appropriate amount of each stock solution (e.g., 1 mL) and diluted to the appropriate final concentrations with the addition of an appropriate amount of an aqueous mixture of 1.5% (v/v) COC so that the final spray solutions contain 1.25% (v/v) COC. As required, additional water and/or 97:3 (v/v) acetone/DMSO can be added to individual application solutions so that the final acetone and DMSO concentrations of the application solutions being compared are 8.1% and 0.25%, respectively.
All stock solutions and applications solutions were visually inspected for compound compatibility prior to application. Spray solutions were applied to the soil with an overhead Mandel track sprayer equipped with a 8002E nozzles calibrated to deliver 187 L/ha over an application area of 0.503 m^2 at a spray height of 18 inches (46 cm) above average pot height. […]

COc1c(Cl)ccc(-c2nc(C(=O)OCc3ccccc3)c(Cl)c(N)c2F)c1F [Compound A Benzyl Ester, benzyl ester of 4-amino-3-chloro-5-fluoro-6-(4-chloro-2-fluoro-3-methoxy-phenyl)pyridine-2-carboxylic acid]
Visual Weed Control (%) - 27 DAA BRAPP Obs (Compound A Benzyl Ester 16 g ae/ha, Table 28): 0% | Visual Weed Control (%)-28 DAA BRAPP Obs (Compound A Benzyl Ester 16 g ae/ha): 0% | Visual Weed Control (%) - 27 DAA BRAPP Obs (Compound A Benzyl Ester 32 g ae/ha, Table 27): 0% | Visual Weed Control (%) - 27 DAA BRAPP Obs (Compound A Benzyl Ester 32 g ae/ha, Table 28): 0% | Visual Weed Control (%)-28 DAA BRAPP Obs (Compound A Benzyl Ester 32 g ae/ha): 5%
